# Source: patent US12691106B2, “Treating refractive disorders by targeting peroxisome proliferator-activated receptor (PPAR) signaling pathway” (Centre for Eye and Vision Research Limited, priority 2023, dated 2026)
# Tests used:
# [1] = in vivo
# [2] = tested on: lens-induced myopia (LIM) chick eyes; test: Lens-induced myopia (LIM) in chicks, axial length by ultrasonic A-scan; assay type: in vivo
# Experimental: (§1) Chicks age day 7 are divided into 2 groups, lens-induced myopia (LIM) and age-matched control (CTL), randomly. Chick eyes are measured with ultrasonic A-scan and refractive index by retinoscope by a single-masked operator. A computer-controlled randomization is applied to assign either left or right eye for LIM treatment and contralateral eye served as untouch control. Baseline physiological data is acquired on day 7. Purified rosiglitazone (>99%) is purchased from manufacturer and dissolved in 100% Dimethyl sulfoxide (DMSO). A working rosiglitazone solution is prepared in the concentration of 5 mM in 2% DMSO, PBS solution prior use. The rosiglitazone (5 mM, 10 μL) is delivered by intravitreal injection in the LIM eye once a day for 3 consecutive days. A-10 D lens is applied soon after drug delivery. Chick eyes are measured again on day 10 to access the effect of rosiglitazone.
# as §1, with “Further, the effect of rosiglitazone in lower dosages is also investigated. Briefly, chicks age” for “Chicks age”, “into 3” for “into 2”, “myopia with higher dosage (LIM with 1 mM, n=7), lens-induced myopia with lower dosage (LIM with 0.2 mM, n=7)” for “myopia (LIM)”, “control (CTL, n=2),” for “control (CTL),”, “as untouched” for “as untouch”, “rosiglitazone (1 mM, 10 μL or 0.2” for “rosiglitazone (5”
# Referring to FIG. 1, the rosiglitazone treatment has shown a consistent effect on slowing myopia progression by an average of 65% using different batches of chicks when compared to independent age-matched chicks subjected to LIM treatment. The effect of myopia inhibition is reduced with dose with an exponential regression of y=1.14e^−0.57x, R^2=1) to 37% of inhibition in 1 mM drug and 21% of inhibition in 0.2 mM drug treatment group.
# normal growing eye = test: Effect of rosiglitazone on normal chick eyes; assay type: in vivo; details: 5 mM, 10 μL intravitreal injection once a day for 3 days, two time points (FIG. 2)
compound,measurement,setting,value
CN(CCOc1ccc(CC2SC(=O)NC2=O)cc1)c1ccccn1 (stereo not drawn) [rosiglitazone],toxicity in animal models,[1],no sign of toxicity
same,inhibition of myopia (axial length),"[2]; 0.2 mM, 10 μL intravitreal injection once a day for 3 days, -10 D lens, measured day 10",21%
same,inhibition of myopia (axial length),"[2]; 1 mM, 10 μL intravitreal injection once a day for 3 days, -10 D lens, measured day 10",37%
same,"slowing myopia progression (axial length), inhibition vs age-matched LIM chicks","[2]; 5 mM, 10 μL intravitreal injection once a day for 3 days, -10 D lens, measured day 10, average over different batches of chicks",65%
same,suppression of axial length growth,"[2]; dose-dependent, summary statement, dose not given",65%
same,effect on normal growing eye or inducing hyperopia in naked eye,normal growing eye,no statistically significant effect
